Values of other authors as cited in US20120289594A1, “ORAL DOSAGE FORM” (Orion Corporation, priority 2005, published 2012).

What was measured:
[1] = background statement
[2] = background statement; remark: listed apart in the source

absorption in the gastrointestinal tract [1]: quickly absorbed
water solubility [2]: very low
SMILES: CCN(CC)C(=O)/C(C#N)=C/c1cc(O)c(O)c([N+](=O)[O-])c1 [Entacapone, (E)-2-cyano-3-(3,4-dihydroxy-5-nitrophenyl)-N-diethyl-2 propenamide]
